# According to patent US6551774B1, “Diagnostic methods for conditions associated with elevated cellular levels of telomerase activity” (Board of Regents, The University of Texas System, priority 1992, dated 2003):
# Structures can show the parent of a compound that is named as a salt. Where two headings read alike, the source gives them in different places.
# What was measured:
# Tetrahymena cells [1] = experiment: Progeny formation (cycloheximide resistance) of Tetrahymena conjugated in the presence of analog; type: cell-based, Tetrahymena thermophila; settings: for % CHX-R: 0.017 mM analog (head prints MM)
# Procedure: For analysis of cycloheximide (CHX) sensitivity of cells conjugated in the presence of analog, 50 ml cultures of each cell type were grown overnight in 2% PPYS, starved in Dryl's for 18 hours, mated (5×10^5 cells/ml) for 6 hours, then analog was added. Cells were allowed to complete mating in the presence of the analog. Twenty-four hours after mixing, cells were diluted in Dryl's solution, counted and plated at 1 cell per well of 96-well plates in 1% PPYS without analog. Cells were grown for 4 days in a humid chamber at 30° C., without shaking. Cells were then replica plated into 1% PPYS plus 15 μg/ml cycloheximide, allowed to grow for four days before scoring, and percent of CHX-resistant wells was calculated. Because generation of progeny expressing the cycloheximide marker requires successful production of a new macronucleus, cells whose macronuclear development was disrupted by the analog are killed in CHX.
# This process involves de novo formation of new macronuclear telomeres in the progeny cells. Macronuclear development in ciliated protozoans such as Tetrahymena involves developmentally programmed, site-specific fragmentation of germline chromosomes into linear subchromosomes, whose ends are healed by de novo addition of telomeres. […] Because of the immediate requirement for telomere addition to fragmented DNA, it is possible that the latter process might be more sensitive to telomerase inhibition than telomere maintenance during vegetative growth. To test whether nucleoside analogs cause inhibition of macronuclear development due to a disruption of telomere formation, we mated two strains of Tetrahymena which are sensitive to cycloheximide, but whose progeny after mating are resistant to cycloheximide. Synchronized mated cells were treated with AZT at concentrations ranging from 10 μM to 5 mM for a period beginning just prior to when macronuclear development begins and continuing during macronuclear development (the period 6-24 hours after mating was initiated). […] In attempts to maximize the effect of AZT, cells were either refed at 6 hrs with 2% PPYS or Isobroth, or starved until 24 hrs (the duration of the AZT treatment). Such starvation arrests macronuclear development at an intermediate stage. When refed, macronuclear development would then be forced to proceed in the presence of the AZT. Control, unmated parental cells were also plated and exposed to drug.
# [2] = target: T1, Tetrahymena thermophila telomerase (Tetrahymena thermophila, UniProt O77448); experiment: Tetrahymena telomerase in vitro assay (incorporation of 32P label, gel of products); type: biochemical; settings: for position on the telomerase RNA template of strongest chain termination: template residues numbered 1 to 9 (5′ to 3′); for Km: from competition of unlabeled with 32P-labeled nucleotide; for effect on the telomerase reaction: dideoxynucleoside triphosphates
# T1 construct: A standard assay contained 50% by volume of heparin-agarose purified telomerase; endogenous in cells; host or cells: Tetrahymena thermophila cell extracts, heparin-agarose purified
# T1 sequence (O77448 1-1117): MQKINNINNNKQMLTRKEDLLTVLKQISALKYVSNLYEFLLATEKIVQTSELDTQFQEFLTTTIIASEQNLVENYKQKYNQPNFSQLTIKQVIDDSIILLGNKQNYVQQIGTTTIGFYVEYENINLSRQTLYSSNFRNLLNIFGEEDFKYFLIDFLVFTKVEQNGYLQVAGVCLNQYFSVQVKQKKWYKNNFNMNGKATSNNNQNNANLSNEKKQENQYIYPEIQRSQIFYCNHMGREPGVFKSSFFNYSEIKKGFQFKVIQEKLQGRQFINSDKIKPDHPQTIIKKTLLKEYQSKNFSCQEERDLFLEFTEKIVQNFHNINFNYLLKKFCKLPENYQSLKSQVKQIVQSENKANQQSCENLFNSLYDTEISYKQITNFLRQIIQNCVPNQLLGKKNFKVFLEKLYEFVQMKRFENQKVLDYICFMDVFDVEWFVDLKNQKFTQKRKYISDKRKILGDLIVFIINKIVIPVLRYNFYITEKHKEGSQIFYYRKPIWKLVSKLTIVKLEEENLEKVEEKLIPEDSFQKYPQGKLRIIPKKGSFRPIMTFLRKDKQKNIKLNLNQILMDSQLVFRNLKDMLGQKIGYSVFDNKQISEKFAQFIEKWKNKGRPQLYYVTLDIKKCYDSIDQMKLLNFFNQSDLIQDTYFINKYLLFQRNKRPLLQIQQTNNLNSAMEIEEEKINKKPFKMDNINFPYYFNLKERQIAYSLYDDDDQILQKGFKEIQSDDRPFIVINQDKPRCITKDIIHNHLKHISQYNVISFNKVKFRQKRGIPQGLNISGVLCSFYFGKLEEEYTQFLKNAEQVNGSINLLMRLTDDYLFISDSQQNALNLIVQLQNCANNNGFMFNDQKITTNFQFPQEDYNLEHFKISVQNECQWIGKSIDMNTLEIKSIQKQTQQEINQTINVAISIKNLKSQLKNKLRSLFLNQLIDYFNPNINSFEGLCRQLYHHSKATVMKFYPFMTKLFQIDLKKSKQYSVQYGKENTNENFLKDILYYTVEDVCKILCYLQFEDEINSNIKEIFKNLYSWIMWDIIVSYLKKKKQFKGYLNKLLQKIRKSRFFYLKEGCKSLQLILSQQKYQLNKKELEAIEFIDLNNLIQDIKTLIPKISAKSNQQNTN
# T1 sequence (W7X6T2 1-542 partner): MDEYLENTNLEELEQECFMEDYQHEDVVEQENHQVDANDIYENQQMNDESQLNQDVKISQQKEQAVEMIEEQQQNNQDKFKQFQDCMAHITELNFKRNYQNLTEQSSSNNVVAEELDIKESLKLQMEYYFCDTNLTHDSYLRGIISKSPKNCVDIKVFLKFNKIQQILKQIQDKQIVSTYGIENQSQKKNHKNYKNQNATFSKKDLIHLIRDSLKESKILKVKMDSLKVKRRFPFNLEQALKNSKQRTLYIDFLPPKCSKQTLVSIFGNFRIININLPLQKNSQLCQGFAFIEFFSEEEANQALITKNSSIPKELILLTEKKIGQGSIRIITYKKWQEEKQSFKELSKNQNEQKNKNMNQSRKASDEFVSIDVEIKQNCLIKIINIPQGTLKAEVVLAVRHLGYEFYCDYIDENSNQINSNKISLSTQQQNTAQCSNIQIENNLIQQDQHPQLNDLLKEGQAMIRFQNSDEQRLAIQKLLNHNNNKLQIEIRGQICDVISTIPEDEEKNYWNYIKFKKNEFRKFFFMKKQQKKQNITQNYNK
# Procedure: AZT-triphosphate was obtained from Burroughs Wellcome, N.C. Ara-G-triphosphate was purchased from Calbiochem and ddNTPs from Sigma. Reaction mixes were kept on ice until ready for use, and then mixed into tubes containing analog for incubation at 30° C. Reaction times were thirty minutes. […] Identical reactions were run without primers as controls. […] Incorporation of ^32P label from either ^32P-TTP or ^32P-dGTP was measured to monitor the reaction rate.
# The standard telomerase assay used in this example consists of incorporation of dGTP and TTP substrates, one triphosphate ^32P-labeled, into synthesized DNA in the reaction shown in FIG. 18A. […] Incorporation of ^32P label from either ^32P-TTP or ^32P-dGTP was measured to monitor the reaction rate, and the distributions of elongation products were analyzed by denaturing polyacrylamide gel electrophoresis.
# Tetrahymena cells [3] = experiment: Telomere length in vegetatively grown Tetrahymena by Southern blot; type: cell-based, Tetrahymena thermophila; settings: 100 μM and 1 mM in Isobroth, after 5 days (16 generations)
# Procedure: For analysis of macronuclear DNA from cultures containing the nucleoside analog AZT (Sigma), or controls lacking analog, at various timepoints during vegetative divisions, cells from stationary stock cultures were inoculated into 25 ml thymine-deficient Iso-sensitest broth (‘Isobroth’, Oxoid USA) in 250 ml flasks. Cultures were incubated at 30° C. with shaking (100 rpm) for 48 hours. Cells were counted and plated at 1000 cells/1.5 ml in 24-well plates (Falcon) and grown at 30° C., without shaking, for 48 hours. 5 μl of these log phase cells were used to inoculate 1 ml cultures (Isobroth) containing varied concentrations of nucleoside analog. Thereafter, every 2-4 days cells were transferred, either 5 μl per well, or 1-3 μl using a multi-pronged replicator into fresh 1 ml broth containing AZT. Remaining cells were pelleted and stored at −80° C. until processed for DNA analysis.
# For analysis of macronuclear DNA from vegetative cultures containing the nucleoside analogs Ara-G (Calbiochem), ddG (Calbiochem), or ddI (Calbiochem), or controls lacking analog, stock cultures were grown overnight in 2% PPYS as described. Cells were counted and plated at 100 cells/2 ml in 2% PPYS containing varied amounts of analog, 1% DMSO (Fisher) (as a control for ddG and Ara-G), or 2% PPYS alone. Cells were replica plated into fresh medium every 2-6 days, and remaining cells were pelleted and stored at −80° C. until processed for DNA analysis.
# For analysis of macronuclear DNA from vegetative cultures containing d4T (Sigma) or control lacking the analog, stock cultures (SB210 VI) were grown overnight in Isobroth as described. Cells were then counted and duplicate cultures inoculated at 500 cells/5 ml Isobroth in 50 ml conical tubes, and grown at 30° C., shaking 80 rpm. 500-2000 cells were transfered to fresh broth every 2-4 days, and the remainder pelleted and stored at −80° C. until processed for DNA analysis.
# Restriction digests, agarose gel electrophoresis, transfer of DNA to Nytran filters (Schleicher and Schuell), and hybridization with ^32P-nick-trapplated or random-primed probes were carried out using standard procedures (Maniatis et.al. 1989). Telomere length was analyzed as described previously for Tetrahymena [Larson 50 Cell, 477, 1987].
# Telomere lengths in cells grown in the presence of the different analogs were monitored by Southern blot analysis of DNA samples extracted at a series of time points during the subculturings. The telomeres of cells grown vegetatively in 1 and 5 mM AZT in 2% PPYS medium were reproducibly shortened by up to an average of 170 base pairs compared with the control cultures grown in 2% PPYS in the absence of the drug (FIG. 21A and B). This shortening of telomeres occured in a concentration-dependent manner (FIG. 21B), with at least 50% of the maximal shortening effect occurring by 10 μM AZT, the lowest concentration tested.
structure (smiles),measurement,setting,value
"Nc1nc2c(ncn2COCCO)c(=O)[nH]1 [Acyclo-G, Acycloguanosine]",% CHX-R,Tetrahymena cells [1]; first block for the analog,75%
same,% CHX-R,Tetrahymena cells [1]; second block for the analog,69%
same,# CHX-R,"Tetrahymena cells [1]; 0.017 mM analog, first block for the analog, number of cycloheximide-resistant wells",80
same,irreversible disruption of macronuclear development,Tetrahymena cells [1]; analog present during conjugation,little or no irreversible disruption
"Nc1nc2c(ncn2[C@@H]2O[C@H](COP(=O)(O)OP(=O)(O)OP(=O)(O)O)[C@@H](O)[C@@H]2O)c(=O)[nH]1 [Ara-GTP, arabinofuranyl-guanosine triphosphate]",IC50,"[2]; standard assay, 32P-dGTP / 32P-NTP incorporation, 30 min at 30° C., read-out: concentration at which 50% inhibition of incorporation of 32P label occurred",0.7 µM
same,position on the telomerase RNA template of strongest chain termination,[2],4
"[H]/N=C(/N)N[C@H]1[C@H](O)[C@@H](O)[C@H](O[C@@H]2O[C@@H](C)[C@](O)(C=O)[C@H]2O[C@@H]2O[C@@H](CO)[C@H](O)[C@@H](O)[C@@H]2NC)[C@@H](N/C(N)=N\[H])[C@@H]1O [Streptomycin sulfate, streptomycin sulfate]",effect on amount and average length of elongation products,"[2]; 40 mM, 40 mM sodium sulfate control little decrease",dramatically reduced
Cc1cn([C@H]2C[C@H](O)[C@@H](COP(=O)(O)OP(=O)(O)OP(=O)(O)O)O2)c(=O)[nH]c1=O [TTP],Km,[2],~5 µM
"Cc1cn([C@H]2C=C[C@@H](CO)O2)c(=O)[nH]c1=O [d4T, 3′ deoxy-2′,3′-didehydrothymidine]",telomere length,Tetrahymena cells [3],produced shortened telomeres
Nc1nc2c(ncn2[C@H]2C[C@H](O)[C@@H](COP(=O)(O)OP(=O)(O)OP(=O)(O)O)O2)c(=O)[nH]1 [dGTP],Km,[2],1 to 2 µM
Nc1ncnc2c1ncn2[C@H]1CC[C@@H](COP(=O)(O)OP(=O)(O)OP(=O)(O)O)O1 [ddATP],effect on the telomerase reaction,[2],no significant effects
Nc1ccn([C@H]2CC[C@@H](COP(=O)(O)OP(=O)(O)OP(=O)(O)O)O2)c(=O)n1 [ddCTP],effect on the telomerase reaction,[2],no significant effects
Nc1nc2c(ncn2[C@H]2CC[C@@H](COP(=O)(O)OP(=O)(O)OP(=O)(O)O)O2)c(=O)[nH]1 [ddGTP],IC50,[2],< 0.1 µM
"O=c1[nH]cnc2c1ncn2[C@H]1CC[C@@H](COP(=O)(O)OP(=O)(O)OP(=O)(O)O)O1 [ddITP, dideoxyinosine triphosphate]",IC50,[2],3 µM
same,position on the telomerase RNA template of strongest chain termination,[2],5
Cc1cn([C@H]2CC[C@@H](COP(=O)(O)OP(=O)(O)OP(=O)(O)O)O2)c(=O)[nH]c1=O [ddTTP],IC50,[2],5 µM
CO[C@H]1/C=C/O[C@@]2(C)Oc3c(C)c(O)c4c(O)c(c(/C=N/N5CCN(C)CC5)c(O)c4c3C2=O)NC(=O)/C(C)=C\C=C\[C@H](C)[C@H](O)[C@@H](C)[C@@H](O)[C@@H](C)[C@H](OC(C)=O)[C@@H]1C [rifampin],effect on quantitative incorporation of label and banding pattern,[2]; concentrations up to 100 μg/ml,did not affect the quantitative incorporation of label or change the banding pattern
